Assay results from publication PMC8815882, “Screening the pandemic response box identified benzimidazole carbamates, Olorofim and ravuconazole as promising drug candidates for the treatment of eumycetoma” (PLoS Neglected Tropical Diseases, 2022).
Where two headings read alike, the source gives them in different places.

Tested on: M. mycetomatis genome strain MM55
Test: CLSI M38-A2 based in vitro susceptibility screening (XTT or resazurin), growth at fixed concentration
Format: cell-based, Madurella mycetomatis
Details: Madurella mycetomatis
[1] = 25 uM, replicate A, read-out: Percentage survival at 25um, 25 um A
[2] = mean of three replicates, read-out: Percentage survival at 100um, 100 uM mean
[3] = replicate 1, read-out: Percentage survival at 100um, 100 uM A (first replicate column)
[4] = replicate 2, read-out: Percentage survival at 100um, 100 uM A (second replicate column)
[5] = replicate 3, read-out: Percentage survival at 100um, 100 uM A (third replicate column)
[6] = read-out: Percentage survival at 25um, 25 uM B
[7] = read-out: Percentage survival at 25um, 25 uM C
[8] = read-out: Percentage survival at 25um, 25 uM mean
[9] = 25 uM, replicate B, read-out: Percentage survival at 25um, 25 uM B
[10] = 25 uM, replicate C, read-out: Percentage survival at 25um, 25 uM C
[11] = 25 uM, mean of three replicates, read-out: Percentage survival at 25um, 25 uM mean
[12] = first replicate column, read-out: Percentage survival at 100um, 100 uM A
[13] = second replicate column, read-out: Percentage survival at 100um, 100 uM A
[14] = third replicate column, read-out: Percentage survival at 100um, 100 uM A

CCN(CC)CCCC(C)Nc1ccnc2cc(Cl)ccc12 (centres unmarked) [MMV000008]
activity at 25 µM [1]: 87.2%
activity at 100 µM [2]: 62.1%
activity at 100 µM [3]: 45.5%
activity at 100 µM [4]: 61%
activity at 100 µM [5]: 79.8%
activity at 25 µM [6]: 72.9%
activity at 25 µM [7]: 80.7%
activity at 25 µM [8]: 80.3%

COc1cc(Cc2cnc(N)nc2N)cc(OC)c1OC [MMV000028]
activity at 25 µM (25 uM, mean of three, M. mycetomatis MM55, read-out: Percentage survival at 25um, 25 uM mean): 83.8%
activity at 25 µM (25 uM, replicate A, M. mycetomatis MM55, read-out: Percentage survival at 25um, 25 um A): 93.1%
activity at 25 µM (25 uM, replicate B, M. mycetomatis MM55, read-out: Percentage survival at 25um, 25 uM B): 86.4%
activity at 25 µM (25 uM, replicate C, M. mycetomatis MM55, read-out: Percentage survival at 25um, 25 uM C): 71.8%
activity at 100 µM (mean of three, M. mycetomatis MM55, read-out: Percentage survival at 100um, 100 uM mean): 77.4%
activity at 100 µM (replicate 1, M. mycetomatis MM55, read-out: Percentage survival at 100um, 100 uM A (first replicate column)): 78.2%
activity at 100 µM (replicate 2, M. mycetomatis MM55, read-out: Percentage survival at 100um, 100 uM A (second replicate column)): 74.4%
activity at 100 µM (replicate 3, M. mycetomatis MM55, read-out: Percentage survival at 100um, 100 uM A (third replicate column)): 79.6%

CONC(=N)c1ccc(-c2ccc(-c3ccc(C(=N)NOC)cc3)o2)cc1 [MMV000059]
activity at 25 µM (25 uM, mean, read-out: Percentage survival at 25um, 25 uM mean): 84.9%
activity at 25 µM [1]: 94.2%
activity at 25 µM [9]: 81%
activity at 25 µM [10]: 79.4%
activity at 100 µM (mean, read-out: Percentage survival at 100um, 100 uM mean): 95.8%
activity at 100 µM (replicate (first column), read-out: Percentage survival at 100um, 100 uM A): 101%
activity at 100 µM (replicate (second column), read-out: Percentage survival at 100um, 100 uM A): 92%
activity at 100 µM (replicate (third column), read-out: Percentage survival at 100um, 100 uM A): 94.6%

O=C(c1ccccc1)N1CCN(c2ccccc2NC(=O)C(Cl)(Cl)Cl)CC1 [MMV001014]
activity at 25 µM (25 uM, mean of replicates, read-out: Percentage survival at 25um, 25 uM mean): 76%
activity at 25 µM [1]: 69%
activity at 25 µM [9]: 93.3%
activity at 25 µM [10]: 65.7%
activity at 100 µM (mean of replicates, read-out: Percentage survival at 100um, 100 uM mean): 78.9%
activity at 100 µM (replicate 1, read-out: Percentage survival at 100um, 100 uM A): 98.3%
activity at 100 µM (replicate 2, read-out: Percentage survival at 100um, 100 uM A): 71.3%
activity at 100 µM (replicate 3, read-out: Percentage survival at 100um, 100 uM A): 67.2%

Cc1c(OCC(F)(F)F)ccnc1C[S+]([O-])c1nc2ccccc2[nH]1 (centres unmarked) [MMV001438]
activity at 25 µM [11]: 95.7%
activity at 25 µM [1]: 79.3%
activity at 25 µM [9]: 123%
activity at 25 µM [10]: 84.8%
activity at 100 µM [2]: 55.3%
activity at 100 µM [3]: 41.9%
Percent fungal survival at 100 µM [4]: 52.1%
activity at 100 µM [5]: 71.8%

CCCCc1ccc(C(=O)O)nc1 [MMV001726]
activity at 25 µM [1]: 92.6%
activity at 100 µM [12]: 91.2%
activity at 100 µM [2]: 74.3%
activity at 100 µM [13]: 61.7%
activity at 100 µM [14]: 69.8%
activity at 25 µM [6]: 104%
activity at 25 µM [7]: 77.4%
activity at 25 µM [8]: 91.3%

Nc1nc(O)c2ncn(COC(CO)CO)c2n1 [MMV001761]
activity at 25 µM [11]: 69.6%
activity at 25 µM [1]: 86.2%
activity at 25 µM [9]: 64.3%
activity at 25 µM [10]: 58.4%
activity at 100 µM [12]: 93.4%
activity at 100 µM [2]: 87%
activity at 100 µM [13]: 85.2%
activity at 100 µM [14]: 82.5%

CC1=C(/C=C/C(C)=C/C=C/C(C)=C/C(=O)Nc2ccc(O)cc2)C(C)(C)CCC1 [MMV001793]
activity at 25 µM [11]: 68.1%
activity at 25 µM [1]: 69.1%
activity at 25 µM [9]: 68.9%
activity at 25 µM [10]: 66.2%
activity at 100 µM [2]: 62%
activity at 100 µM [3]: 59%
Percent fungal survival at 100 µM [4]: 58.3%
activity at 100 µM [5]: 68.7%

Nc1nc(O)c2ncn(COCCO)c2n1 [MMV001961]
activity at 25 µM [11]: 90.3%
activity at 25 µM [1]: 88.7%
activity at 25 µM [9]: 94.5%
activity at 25 µM [10]: 87.8%
activity at 100 µM [12]: 88.4%
activity at 100 µM [2]: 84.1%
activity at 100 µM [13]: 78.9%
activity at 100 µM [14]: 85%

NNC(=O)c1ccncc1 [MMV002169]
activity at 25 µM [11]: 85.6%
activity at 25 µM [1]: 90.1%
activity at 25 µM [9]: 80.7%
activity at 25 µM [10]: 85.9%
activity at 100 µM [2]: 85.3%
activity at 100 µM [3]: 84.8%
Percent fungal survival at 100 µM [4]: 81.9%
activity at 100 µM [5]: 89.3%
